In patent US8609173B2, “Compositions comprising sweetness enhancers and methods of making them” (Senomyx Inc., priority 2008, dated 2013):

How the values were obtained:
Format in all cases: in vivo, Human
Panelists [1] = assay: Paired comparison taste test, flavored water
Procedure: Two sweetened water solutions were prepared and compared: Flavored Water with 9% Sucrose vs. Flavored Water with 6% Sucrose+2.3 ppm (6.49 μM) of 5-(neopentyloxy)-1H-benzo[c][1,2,6]thiadiazin-4-amino-2,2-dioxide.
Mixing procedures: Dissolve acid into the water using a Lightnin® blender, mix for 5 minutes. Add sugar and continue to mix until dissolved. Add flavors last. Dissolve Compound A into a 0.50% propylene glycol mixture, add last and mix for another 5 minutes. Procedure:
(§1) Panelists evaluated two sweetened water solutions in a paired comparison taste test procedure and were instructed to select the sweeter of the two samples. They perform a total of three paired comparison tests each containing the following samples: Flavored Water with 9% Sucrose vs. Flavored Water with 6% Sucrose+2.3 ppm (6.49 μM) 5-(neopentyloxy)-1H-benzo[c][1,2,6]thiadiazin-4-amino-2,2-dioxide.
Two sweetened water solutions were prepared and compared: Flavored Water with 9% Sucrose vs. Flavored Water with 6% Sucrose+2.44 ppm (6.49 μM) of 3-(4-amino-2,2-dioxide-1H-benzo[c][1,2,6]thiadiazin-5-yloxy)-2′,2′-dimethyl-N-propylpropanamide.
as §1, with “Sucrose+2.44” for “Sucrose+2.3”, “3-(4-amino-2,2-dioxide-1H-benzo[c][1,2,6]thiadiazin-5-yloxy)-2′,2′-dimethyl-N-propylpropanamide.” for “5-(neopentyloxy)-1H-benzo[c][1,2,6]thiadiazin-4-amino-2,2-dioxide.”

External panelists [2] = assay: Line scale (15-point sucrose equivalence) sensory test, Example 3A/3C, sucrose or LSB, pH 7.1; parameters: key to Average Sweetness / Average Bitterness: 15-point scale: 0 = 0% sucrose to 15 = 15% sucrose; references = 5
Procedure: (§2) Several types of sensory tests were used to determine the efficacy of 5-(neopentyloxy)-1H-benzo[c][1,2,6]thiadiazin-4-amino-2,2-dioxide in enhancing sweetness of sucrose. Two types of tests were conducted: • 1) Sensory scaling tests were performed using a 15-point percent sucrose equivalence scale for sweetness in order to evaluate sweetness enhancement 5-(neopentyloxy)-1H-benzo[c][1,2,6]thiadiazin-4-amino-2,2-dioxide in sucrose, or in fructose. • 2) Paired comparison tests (2-alternative forced choice difference tests) were used to determine sweetness equivalence for solutions of sucrose vs. 5-(neopentyloxy)-1H-benzo[c][1,2,6]thiadiazin-4-amino-2,2-dioxide or buffer vs. 5-(neopentyloxy)-1H-benzo[c][1,2,6]thiadiazin-4-amino-2,2-dioxide. Stimuli:
Tests were performed with sucrose or fructose. Sweetener was evaluated with and/or without 5-(neopentyloxy)-1H-benzo[c][1,2,6]thiadiazin-4-amino-2,2-dioxide at the appropriate concentration(s).
5-(Neopentyloxy)-1H-benzo[c][1,2,6]thiadiazin-4-amino-2,2-dioxide was prepared as a concentrated stock solution in ethanol to ensure dissolution of the compound. Therefore, all taste solutions contained 0.1% ethanol final concentration. Samples without compound also contained 0.1% ethanol. Low sodium phosphate buffer consists of 0.3 mM KCl, 0.5 mM Na2HPO4, and 0.175 mM KH2PO4.
In scaling test situations, the samples were rated on a 15-point scale for sweetness, ranging from 0=0% sucrose to 15=15% sucrose. To evaluate attributes other than sweetness, references are used for training and are prepared according to the table below. Note that each reference was given a score of 5 on the 15-point scale.
External panelists were used for the tests. The exact number of panelists is reported with test results. Subjects were instructed not to eat or drink anything (except water) for at least 1 hour prior to the test.
Panelists rinsed their mouths with water prior to starting any test. Samples were presented to panelists in a randomized, counterbalanced order. Panelists rinsed with water and had up to a 1 minute delay to clear the mouth of any tastes after each evaluation. Two replicates of each test were performed, unless otherwise noted.

Panelists [3] = assay: Paired comparison taste test, Example 7, sucrose or fructose solutions; conditions: vs 6% Fructose + 25 μM compound, N = 25
Procedure: as §2, with “3-(4-amino-2,2-dioxide-1H-benzo[c][1,2,6]thiadiazin-5-yloxy)-2′,2′-dimethyl-N-propylpropanamide 3-(4-amino-2,2-dioxide-1H-benzo[c][1,2,6]thiadiazin-5-yloxy)-2′,2′-dimethyl-N-propylpropanamide” for “5-(neopentyloxy)-1H-benzo[c][1,2,6]thiadiazin-4-amino-2,2-dioxide”, “enhancing the” for “enhancing”, “sucrose” for “sucrose,”, “3-(4-amino-2,2-dioxide-1H-benzo[c][1,2,6]thiadiazin-5-yloxy)-2′,2′-dimethyl-N-propylpropanamide 3-(4-amino-2,2-dioxide-1H-benzo[c][1,2,6]thiadiazin-5-yloxy)-2′,2′-dimethyl-N-propylpropanamide.” for “5-(neopentyloxy)-1H-benzo[c][1,2,6]thiadiazin-4-amino-2,2-dioxide.”
Panelists evaluated two solutions in a paired comparison taste test procedure. They were instructed to select the sweeter of the two samples. They were also asked to comment on how difficult it was to tell the difference in sweetness between both samples and if any off tastes were perceived.
Panelists evaluated two solutions in a paired comparison taste test procedure and were instructed to select the sweeter of the two samples.

External panelists [4] = assay: Line scale sensory test, Example 6, fructose as sweetener, pH 7.1; parameters: Average Sweetness / Average Bitterness: scale not given here
Procedure: Sensory evaluations were performed using fructose as the sweetener and 3-(4-amino-2,2-dioxide-1H-benzo[c][1,2,6]thiadiazin-5-yloxy)-2′,2′-dimethyl-N-propylpropanamide as the sweetness enhancer, using methods similar to those using sucrose, above. […]

[5] = 6% Sucrose + 25 μM compound, pH 7.1, n = 32

CC(C)(C)COc1cccc2c1C(N)=NS(=O)(=O)N2 [5-(neopentyloxy)-1H-benzo[c][1,2,6]thiadiazin-4-amino-2,2-dioxide]
Sample selected as sweeter by panelists, Total (Panelists [1]; Flavored Water with 6% Sucrose + 2.3 ppm (6.49 μM) compound chosen, vs 9% Sucrose, n = 45): 23 | Sweetness comparison (conclusion) (Panelists [1]; Flavored Water with 6% Sucrose + 2.3 ppm (6.49 μM) compound vs 9% Sucrose, p>0.10): not significantly different in sweetness | off tastes (External panelists [2]; 35.3 μM (10 ppm) compound in LSB or 6% sucrose): no significant off tastes | Average Bitterness (External panelists [2]; [5]): 0.3 | Average Sweetness (External panelists [2]; [5]): 8.7 | Average Bitterness (External panelists [2]; 6% Sucrose + 35.3 μM (10 ppm) compound, n = 14): 0.6 | Sweetness vs sucrose solutions (conclusion) (External panelists [2]; 6% Sucrose + 35.3 μM (10 ppm) compound, p>0.10): not significantly different in sweetness from 8%, 9%, 10% sucrose | Average Sweetness (External panelists [2]; 6% Sucrose + 35.3 μM (10 ppm) compound, pH 7.1, n = 14): 9.3 | Sweetness vs sucrose solutions (conclusion) (External panelists [2]; 6% sucrose + 25 μM compound): not significantly different in sweetness properties compared to 9% and 10% sucrose solutions | off tastes (External panelists [2]; 6% sucrose + 25 μM compound): No significant off tastes | Average Bitterness (External panelists [2]; LSB + 35.3 μM (10 ppm) compound, no sucrose, n = 14): 0.3 | Average Sweetness (External panelists [2]; LSB + 35.3 μM (10 ppm) compound, no sucrose, pH 7.1, n = 14): 0.2 | Sweetness vs sucrose solutions (conclusion) (External panelists [2]; LSB + 35.3 μM (10 ppm) compound, p>0.10): not significantly different in sweetness than 0% sucrose

O=C(CO)[C@@H](O)[C@H](O)[C@H](O)CO [Fructose, fructose]
Sample selected as sweeter by panelists, Test 1 (Panelists [3]; 6% Fructose chosen): 5 | Sample selected as more sweet by panelists, Test 1 (Panelists [3]; 7% Fructose chosen): 13 | Average Sweetness (External panelists [4]; 2% Fructose, Table 29, n = 30): 2.2 | Average Bitterness (External panelists [4]; 2% Fructose, Table 30, n = 30): 0.4 | Average Sweetness (External panelists [4]; 4% Fructose, Table 29, n = 30): 4.5 | Average Bitterness (External panelists [4]; 4% Fructose, Table 30, n = 30): 0.5 | Average Sweetness (External panelists [4]; 6% Fructose, Table 29, n = 30): 5.9 | Average Bitterness (External panelists [4]; 6% Fructose, Table 30, n = 30): 0.4 | Average Sweetness (External panelists [4]; 6% Fructose, Table 31, n = 14): 7.1 | Average Bitterness (External panelists [4]; 6% Fructose, Table 32, n = 14): 0.7 | Average Sweetness (External panelists [4]; 6% Fructose, Table 33, n = 26): 6.9 | Average Bitterness (External panelists [4]; 6% Fructose, Table 34, n = 26): 0.2 | Average Sweetness (External panelists [4]; 8% Fructose, Table 31, n = 14): 8.3 | Average Bitterness (External panelists [4]; 8% Fructose, Table 32, n = 14): 0.3 | Average Sweetness (External panelists [4]; 8% Fructose, Table 33, n = 26): 8.6 | Average Bitterness (External panelists [4]; 8% Fructose, Table 34, n = 26): 0.3 | Average Sweetness (External panelists [4]; 9% Fructose, Table 31, n = 14): 9.4 | Average Bitterness (External panelists [4]; 9% Fructose, Table 32, n = 14): 0.3 | Average Sweetness (External panelists [4]; 9% Fructose, Table 33, n = 26): 9.3 | Average Bitterness (External panelists [4]; 9% Fructose, Table 34, n = 26): 0.1 | Average Sweetness (External panelists [4]; 10% Fructose, Table 31, n = 14): 11.1 | Average Bitterness (External panelists [4]; 10% Fructose, Table 32, n = 14): 0.2 | Average Sweetness (External panelists [4]; 10% Fructose, Table 33, n = 26): 9.5 | Average Bitterness (External panelists [4]; 10% Fructose, Table 34, n = 26): 0.1
